Measurements reported in ChEMBL document CHEMBL3621111, “In vitro COX-1 and COX-2 enzyme inhibitory activities of iridoids from Penstemon barbatus, Castilleja tenuiflora, Cresentia alata and Vitex mollis” (Bioorg Med Chem Lett, 2015).

Tests used:
[1] = target: Prostaglandin G/H synthase 1 (Homo sapiens) (UniProt P23219); assay: Inhibition of COX1 (unknown origin) assessed as PGH2 production at 10 uM by measuring […] level by enzyme immunoassay
[2] = target: Prostaglandin G/H synthase 1 (Homo sapiens) (UniProt P23219); assay: Inhibition of COX1 (unknown origin) assessed as PGH2 production at 35 uM by measuring […] level by enzyme immunoassay
[3] = target: Prostaglandin G/H synthase 1 (Homo sapiens) (UniProt P23219); assay: Inhibition of COX1 (unknown origin) assessed as PGH2 production at 100 uM by measuring […] level by enzyme immunoassay

Prostaglandin G/H synthase 1 (Homo sapiens), sequence (P23219 whole entry): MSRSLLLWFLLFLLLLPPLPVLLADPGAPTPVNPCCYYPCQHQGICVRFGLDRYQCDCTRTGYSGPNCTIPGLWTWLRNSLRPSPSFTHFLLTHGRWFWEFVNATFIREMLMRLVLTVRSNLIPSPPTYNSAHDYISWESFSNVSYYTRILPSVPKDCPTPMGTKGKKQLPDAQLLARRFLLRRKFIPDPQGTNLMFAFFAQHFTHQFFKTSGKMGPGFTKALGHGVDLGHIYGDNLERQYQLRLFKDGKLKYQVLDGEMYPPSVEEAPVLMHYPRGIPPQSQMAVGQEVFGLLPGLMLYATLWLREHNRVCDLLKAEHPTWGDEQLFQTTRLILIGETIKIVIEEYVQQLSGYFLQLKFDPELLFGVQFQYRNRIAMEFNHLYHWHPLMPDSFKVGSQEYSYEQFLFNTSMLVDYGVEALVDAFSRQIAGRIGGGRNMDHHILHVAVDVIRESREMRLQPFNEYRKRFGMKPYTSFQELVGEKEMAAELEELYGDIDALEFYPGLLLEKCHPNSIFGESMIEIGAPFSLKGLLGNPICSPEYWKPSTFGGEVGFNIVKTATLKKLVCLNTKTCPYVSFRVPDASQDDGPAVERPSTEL

SMILES | inhibition [1] [%] | inhibition [2] [%] | inhibition [3] [%]
OCC1=C[C@@H](O)[C@@H]2C=CO[C@@H](O[C@@H]3O[C@H](CO)[C@@H](O)[C@H](O)[C@H]3O)[C@H]12 | 49.9 | 48.2 | 50.2
COc1ccc(C(=O)O[C@H]2[C@@H]3C=CO[C@@H](O[C@@H]4O[C@H](CO)[C@@H](O)[C@H](O)[C@H]4O)[C@@H]3[C@@]3(CO)O[C@@H]23)cc1OC | 38.2 | 38.6 | 39.1
O=C(OCC1=C[C@@H](O)[C@@H]2C=CO[C@@H](O[C@@H]3O[C@H](CO)[C@@H](O)[C@H](O)[C@H]3O)[C@H]12)c1ccc(O)cc1 | 40.3 | 40.8 | 43.4
CC(=O)O[C@]1(C)C[C@@H](O)[C@]2(O)C=CO[C@@H](O[C@@H]3O[C@H](CO)[C@@H](O)[C@H](O)[C@H]3O)[C@@H]21 | 38.5 | 38.6 | 39.1
COc1ccc(C(=O)O[C@@H]2C=C(CO)[C@H]3[C@H](O[C@@H]4O[C@H](CO)[C@@H](O)[C@H](O)[C@H]4O)OC=C[C@H]32)cc1 | 35 | 34.3 | 32.8
OC[C@H]1O[C@@H](O[C@@H]2OC=C[C@H]3[C@H](O)[C@@H]4O[C@]4(CO)[C@@H]23)[C@H](O)[C@@H](O)[C@@H]1O | 44.2 | 47.6 | 63.7
C[C@@H]1CC[C@]2(O)C(C=O)=CO[C@@H](O[C@@H]3O[C@H](CO)[C@@H](O)[C@H](O)[C@H]3O)[C@H]12 | 36.3 | 36.6 | 39.9
O=C(O)C1=CO[C@@H](O[C@@H]2O[C@H](CO)[C@@H](O)[C@H](O)[C@H]2O)[C@@H]2C(CO)=CC[C@H]12 | 55.7 | 54.1 | 55.3
OCC1=CC[C@@H]2C=CO[C@@H](O[C@@H]3O[C@H](CO)[C@@H](O)[C@H](O)[C@H]3O)[C@H]12 | 52.7 | 49.9 | 47.5

Continued, values first:

inhibition [1] [%] | inhibition [2] [%] | inhibition [3] [%] | SMILES
51.2 | 51.5 | 50.5 | COC(=O)C1=CO[C@@H](O[C@@H]2O[C@H](CO)[C@@H](O)[C@H](O)[C@H]2O)[C@@H]2[C@@H](C)[C@@H](O)C[C@H]12
43 | 48 | 73.3 | C[C@@H]1CC[C@@H]2C(C=O)=CO[C@@H](O[C@@H]3O[C@H](CO)[C@@H](O)[C@H](O)[C@H]3O)[C@H]12
33.4 | < 30 | < 30 | COC(=O)C1=CO[C@@H](O[C@@H]2O[C@H](CO)[C@@H](O)[C@H](O)[C@H]2O)[C@@H]2[C@H](C)[C@@H](O)C[C@H]12
< 30 | 42.6 | 42.7 | COC(=O)C1=CO[C@@H](O[C@@H]2O[C@H](CO)[C@@H](O)[C@H](O)[C@H]2O)[C@H]2[C@@H]1CC[C@]2(C)O
36.9 | 36 | 35.4 | C[C@@H]1[C@H]2[C@H](O[C@@H]3O[C@H](CO)[C@@H](O)[C@H](O)[C@H]3O)OC=C(C(=O)O)[C@H]2C[C@@H]1O
33.2 | 33.4 | 51.7 | COC(=O)C1=CO[C@@H](O[C@@H]2O[C@H](CO)[C@@H](O)[C@H](O)[C@H]2O)[C@@H]2[C@H](C)C[C@@H](O)[C@]12O
51.7 | 51.4 | 48.2 | C=C1[C@H]2[C@H](O[C@@H]3O[C@H](CO)[C@@H](O)[C@H](O)[C@H]3O)OC=C(C(=O)O)[C@H]2C[C@@H]1O
